Assay results as given in ChEMBL document CHEMBL1136164, “Carbonic anhydrase inhibitors: X-ray crystallographic structure of the adduct of human isozyme II with a bis-sulfonamide-two heads are better than one?” (Bioorg Med Chem Lett, 2003).

Tests used:
[1] = species on record: Oryctolagus cuniculus; assay: Prolonged IOP lowering by the compound in glaucomatous rabbit for 3 hours; assay type: functional
[2] = species on record: Oryctolagus cuniculus; assay: Prolonged IOP lowering by the compound in glaucomatous rabbit for 5 to 6 hours; assay type: functional

Row | SMILES | IOP lowering [1] | IOP lowering [2]
1 | CCN[C@H]1C[C@H](C)S(=O)(=O)c2sc(S(N)(=O)=O)cc21 [DORZOLAMIDE] | 3.6 mmHg | –
2 | NS(=O)(=O)c1ccc(CCNC(=O)c2ccc(S(N)(=O)=O)cc2)cc1 | – | 9.5 mmHg
